Assays:
[1] = test system: Staphylococcus aureus ATCC 29213 cytoplasm pH; assay: Cytoplasmic pH measurement with pHluorin; format: cell-based; conditions: pHluorin fluorescence ratio, 5 minutes incubation
Protocol: Cytoplasm pH was monitored by pH sensitive fluorescent protein over time (s). 2 μM nigericin (Nig) and 2 μM valinomycin (Val) were used as positive control and 1% DMSO was used as negative control. Data represented the mean±S.D. of biological triplicates. Statistical analysis was performed by one-way ANOVA with Dunnett's post-test to calculate p-values adjusted for multiple comparisons with DMSO negative control (*p<0.05; **p<0.01; ***p<0.001).
To construct pHluorinsarA plasmid, pGLsarA plasmid vector was PCR amplified using primers pGL-f (CTGCAGGCATGCAAG; SEQ ID NO: 1) and pGL-r ([…]: SEQ ID NO: 2). […]
A pHlourin standard curve correlating pH and fluorescence ratio was constructed. Briefly, the emission at 510 nm was monitored with excitation wavelengths at 410 nm and 470 nm simultaneously following previously described protocol^18 Overnight culture Staphylococcus aureus ATCC 29213 was sub-cultured 1:100 in fresh CAMH medium and regrown to exponential phase. […] Fluorescence ratio (Excitation wavelength 410 nm/470 nm; emission wavelength 510 nm) was then measured in 1 mL cuvette using Hitachi F-4500 Florescence Spectrometer and plotted against the pH of the buffer. […]

[2] = test system: Staphylococcus aureus Mu3; assay: Antibacterial effect in combination with calcium channel blockers; format: cell-based; conditions: 12.5 μM compound 8 (4×MIC), dose dependent
Protocol: (§1) Exponential phase Staphylococcus aureus Mu3 was treated with compound 8 (4×MIC) or combination with calcium channel blocker. Data were representative of mean±S.D. of four individual experiments with error bars. Statistical analysis was performed by one-way ANOVA with Dunnett's post-test to calculate p-values adjusted for multiple comparisons with initial bacteria inoculum as control condition (*p<0.05; **p<0.01; ***p<0.001).
as §1, with “Data” for “Exponential phase Staphylococcus aureus Mu3 was treated with compound 8 (4×MIC) or combination with calcium channel blocker. Data”

CC(C)C[C@H](ONC(=O)[C@@H](COCc1ccccc1)ONC(=O)c1cc(C(F)(F)F)cc(C(F)(F)F)c1)C(=O)Nc1ccccc1 [Compound 8]
cytoplasm pH [1]: can acidify Staphylococcus aureus cytoplasm | antibacterial effect in combination with calcium channel blocker verapamil or benidipine [2]: calcium channel blockers can antagonize the antibacterial effect
